Measured values reported in article PMC12029836, “Phytotoxicity, Cytotoxicity, and Antimicrobial Activity of Triethanolammonium Amino Acids Salts” (Molecules, 2025).
Values joined by “and” are separate entries in the source; they are usually repeats but may differ in a detail not shown here. Equal entries are not always repeated. Where two headings read alike, the source gives them in different places.

What was measured:
[1] = system: C. albicans ATCC 10231; assay: Antimicrobial activity, broth microdilution MIC/MBC; type: cell-based, Candida albicans; conditions: C. albicans ATCC 10231, 24 h at 37 °C, at least 90% growth inhibition; nd—not detected
[2] = system: Lepidium sativum L. seeds; conditions: 24 h incubation, mean(±SD), n = 3
[3] = system: Lepidium sativum L. roots; conditions: 24 h incubation, mean(±SD), n = 3
[4] = system: L929 fibroblasts; assay: Mammalian cell cytotoxicity screening, resazurin viability; type: cell-based, mouse
[5] = 0.01% (w/w) compound in the medium
[6] = 0.03% (w/w) compound in the medium
[7] = 0.05% (w/w) compound in the medium
[8] = 0.10% (w/w) compound in the medium
[9] = 0.30% (w/w) compound in the medium
[10] = 0.50% (w/w) compound in the medium
[11] = 1.00% (w/w) compound in the medium
[12] = 2.00% (w/w) compound in the medium
[13] = 3.00% (w/w) compound in the medium
[14] = 4.00% (w/w) compound in the medium
[15] = 5.00% (w/w) compound in the medium

Compound | Inhibition of the Lepidium sativum seeds germination (ISG, %) [2, 5] | Inhibition of the Lepidium sativum seeds germination (ISG, %) [2, 6] | Inhibition of the Lepidium sativum seeds germination (ISG, %) [2, 7] | Inhibition of the Lepidium sativum seeds germination (ISG, %) [2, 8] | Inhibition of the Lepidium sativum seeds germination (ISG, %) [2, 9] | Inhibition of the Lepidium sativum seeds germination (ISG, %) [2, 10] | Inhibition of the Lepidium sativum seeds germination (ISG, %) [2, 11] | Inhibition of the Lepidium sativum seeds germination (ISG, %) [2, 12] | Inhibition of the Lepidium sativum seeds germination (ISG, %) [2, 14] | Inhibition of the Lepidium sativum seeds germination (ISG, %) [2, 15] | Inhibition of the root growth in pregerminated Lepidium sativum seeds (IRG, %) [3, 5] | Inhibition of the root growth in pregerminated Lepidium sativum seeds (IRG, %) [3, 6] | Inhibition of the root growth in pregerminated Lepidium sativum seeds (IRG, %) [3, 7] | Inhibition of the root growth in pregerminated Lepidium sativum seeds (IRG, %) [3, 9] | Inhibition of the root growth in pregerminated Lepidium sativum seeds (IRG, %) [3, 10] | Inhibition of the root growth in pregerminated Lepidium sativum seeds (IRG, %) [3, 11] | Inhibition of the root growth in pregerminated Lepidium sativum seeds (IRG, %) [3, 12] | Inhibition of the root growth in pregerminated Lepidium sativum seeds (IRG, %) [3, 13] | Inhibition of the root growth in pregerminated Lepidium sativum seeds (IRG, %) [3, 14] | Inhibition of the root growth in pregerminated Lepidium sativum seeds (IRG, %) [3, 15] | other results
N[C@@H](Cc1c[nH]cn1)C(=O)O.OCCN(CCO)CCO [[TEA][His]] | 0.0(±0.0) % | 1.9(±0.5) % | 3.7(±0.9) % | 5.6(±0.5) % | 7.4(±0.5) % | 9.3(±0.5) % | 12.0(±1.4) % | 14.8(±0.9) % | 27.8(±2.8) % | 74.1(±0.5) % | 1.1(±2.2) % | 12.9(±2.1) % | 15.7(±2.2) % | 28.6% | 37.1(±2.0) % | 48.6(±1.6) % | 62.9(±1.2) % | 72.9(±0.9) % | 80.0(±0.8) % | 84.3(±0.7) % | MIC (%) [1]: 2.50%; Inhibition of the Lepidium sativum seeds germination (ISG, %) [2, 13]: 25.9(±1.2) %; Inhibition of the root growth in pregerminated Lepidium sativum seeds (IRG, %) [3, 8]: 22.1(±2.1) %
CC(C)C[C@H](N)C(=O)O.OCCN(CCO)CCO [[TEA][Leu]] | 0.0(±1.9) % | 0.0(±1.9) % | 5.7(±0.5) % | 6.6(±0.9) % | 7.5(±2.1) % | 11.3(±0.8) % | 15.1(±1.6) % | 32.1(±0.1) % | 84.9(±2.5) % | 100(±0.1) % | 0.0(±0.0) % | 8.9(±2.5) % | 10.5(±2.1) % | 30.0(±1.9) % | 39.9(±1.5) % | 53.0(±1.0) % | 67.9(±0.9) % | 71.6(±0.8) % | 88.7(±0.7) % | 94.7(±0.5) % | ED20 ([4]; 24h exposure): 0.23±0.02%; ED50 ([4]; 24h exposure): 0.51±0.22%; ED80 ([4]; 24h exposure): 0.93±0.07%; ED20 ([4]; 48h exposure): 0.21±0.01%; ED50 ([4]; 48h exposure): 0.51±0.01%; ED80 ([4]; 48h exposure): 0.82±0.03%; Inhibition of the Lepidium sativum seeds germination (ISG, %) [2, 13]: 58.5%; Inhibition of the root growth in pregerminated Lepidium sativum seeds (IRG, %) [3, 8]: 20.3(±1.7) %
CSCC[C@H](N)C(=O)O.OCCN(CCO)CCO [[TEA][Met]] | 0.0(±0.2) % | 0.0(±0.1) % | 0.0(±0.1) % | 0.0(±0.1) % | 0.0(±0.0) % | 1.9(±1.3) % | 3.7(±0.5) % | 7.4(±0.9) % | 29.6(±0.8) % | 37.0(±2.5) % | 0.0(±0.0) % | 0.0(±0.0) % | 0.0(±0.0) % | 22.8(±3.3) % | 30.1(±3.8) % | 52.1(±2.2) % | 60.7(±2.0) % | 64.9(±1.4) % | 77.4(±1.3) % | 77.8(±0.9) % | MIC (%) [1]: 5.00%; ED20 ([4]; 24h exposure): 0.08±0.01%; ED50 ([4]; 24h exposure): 0.29±0.02% and 0.29%; ED80 ([4]; 24h exposure): 0.74±0.08%; ED20 ([4]; 48h exposure): 0.09±0.01%; ED50 ([4]; 48h exposure): 0.31±0.02%; ED80 ([4]; 48h exposure): 0.78±0.06%
N[C@@H](Cc1ccccc1)C(=O)O.OCCN(CCO)CCO [[TEA][Phe]] | 0.0(±0.0) % | 0.0(±0.0) % | 0.9(±0.8) % | 1.8(±0.9) % | 3.5(±1.7) % | 5.3(±0.8) % | 8.8(±1.3) % | 10.5(±0.8) % | 22.8(±2.4) % | 86.0(±2.1) % | 23.6% | 24.4(±2.0) % | 28.5(±2.0) % | 48.1(±1.7) % | 53.1(±1.3) % | 60.2(±1.4) % | 69.6(±1.1) % | 78.3(±0.9) % | 83.5(±0.9) % | 92.1(±0.6) % | ED20 ([4]; 24h exposure): 0.37±0.04%; ED50 ([4]; 24h exposure): 0.72±0.07% and 0.72%; ED80 ([4]; 24h exposure): 1.20±0.19%; ED20 ([4]; 48h exposure): 0.38±0.04%; ED50 ([4]; 48h exposure): 0.63±0.04%; ED80 ([4]; 48h exposure): 0.91±0.14%; Inhibition of the root growth in pregerminated Lepidium sativum seeds (IRG, %) [3, 8]: 44.2(±1.6) %
N[C@@H](Cc1c[nH]c2ccccc12)C(=O)O.OCCN(CCO)CCO [[TEA][Trp]] | 0.0(±0.0) % | 1.9(±0.5) % | 3.7(±1.3) % | 12.0(±0.8) % | 16.7(±2.2) % | 18.5(±1.8) % | 28.7(±1.3) % | 38.9(±1.6) % | 61.1(±1.4) % | 83.3(±0.8) % | 38.1% | 41.1(±1.2) % | 48.8(±1.0) % | 53.3(±0.4) % | 54.7(±1.0) % | 57.6(±0.8) % | 69.0(±0.8) % | 76.0(±0.7) % | 88.8(±0.6) % | 95.0(±0.4) % | Inhibition of the Lepidium sativum seeds germination (ISG, %) [2, 13]: 53.7%; Inhibition of the root growth in pregerminated Lepidium sativum seeds (IRG, %) [3, 8]: 51.9(±1.0) %
CC(C)[C@H](N)C(=O)O.OCCN(CCO)CCO [[TEA][Val]] | 0.0(±0.9) % | 0.0(±1.7) % | 0.0(±1.2) % | 0.0(±1.2) % | 1.9(±0.5) % | 3.8(±1.7) % | 5.7(±0.5) % | 17.0(±0.5) % | 34.0(±1.3) % | 52.8(±1.3) % | 11.6% | 11.9(±3.3) % | 21.7(±2.8) % | 49.1(±2.5) % | 54.8(±2.6) % | 62.9(±2.4) % | 73.3(±1.5) % | 77.6(±1.7) % | 82.0(±1.0) % | 89.9(±0.74) % | Inhibition of the Lepidium sativum seeds germination (ISG, %) [2, 13]: 28.3(±0.5) %; Inhibition of the root growth in pregerminated Lepidium sativum seeds (IRG, %) [3, 8]: 32.7(±2.9) %
